Data from PubChem BioAssay AID1259411 (Chemical Carcinogenesis Research Information System (CCRIS), 2018).
The source made the active and inactive calls. How the calls were made is not given here.

System: rodent carcinogenicity bioassays, tumor incidence
Test: CCRIS carcinogenicity studies
Summary of the method: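 Archive of carcinogenicity, mutagenicity, tumor promotion and tumor inhibition results drawn from journals, NCI reports and other sources, expert-reviewed; covers 1985-2011 and is no longer updated.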

## CN(C)c1ccc(C(=N)c2ccc(N(C)C)cc2)cc1
Species: HUMAN, Route: ORAL, INHALATION, DERMAL, Tumor Site: Type of Lesion: URINARY BLADDER
  carcinogen call: active; positive
Species: MOUSE, Route: ORAL, Tumor Site: Type of Lesion: LIVER, LYMPHATIC SYSTEM: LYMPHOMA
  carcinogen call: active; positive
Species: RAT, Route: ORAL, Tumor Site: Type of Lesion: LIVER
  carcinogen call: active; positive
Species: RAT, Route: SUBCUTANEOUS, Tumor Site: Type of Lesion: INJECTION SITE
  carcinogen call: active; positive

## ClCC(Br)CBr (stereo not given)
Species: MOUSE, Strain/Sex: B6C3F1/FEMALE, Route: GAVAGE, Dose: 0, 110, 209 MG/KG, TWA, Dose: 0, 110, 209 MG/KG, TWA, Tumor Site: Type of Lesion: STOMACH: SQUAMOUS CELL CARCINOMA
  carcinogen call: active; positive
Species: MOUSE, Strain/Sex: B6C3F1/FEMALE, Route: INHALATION, Dose: 0, 0.6, 3.0 PPM 6 HR/D, 5 D/WK FOR 76-103 WK, Dose: 0, 0.6, 3.0 PPM 6 HR/D, 5 D/WK FOR 76-103 WK, Tumor Site: Type of Lesion: NASAL CAVITY: CARCINOMA (NOS), SQUAMOUS CELL CARCINOMA, SQUAMOUS CELL CARCINOMA OR SQUAMOUS CELL PAPILLOMA, ADENOCARCINO
  carcinogen call: active; positive
Species: MOUSE, Strain/Sex: B6C3F1/MALE, Route: GAVAGE, Dose: 0, 114, 219 MG/KG, TWA, Dose: 0, 114, 219 MG/KG, TWA, Tumor Site: Type of Lesion: STOMACH: SQUAMOUS CELL CARCINOMA
  carcinogen call: active; positive
Species: MOUSE, Strain/Sex: B6C3F1/MALE, Route: INHALATION, Dose: 0, 0.6, 3.0 PPM 6 HR/D, 5 D/WK FOR 76 WK, Dose: 0, 0.6, 3.0 PPM 6 HR/D, 5 D/WK FOR 76 WK, Tumor Site: Type of Lesion: NASAL CAVITY: CARCINOMA (NOS), SQUAMOUS CELL CARCINOMA, ADENOMATOUS POLYP (NOS), LUNG: ALVEOLAR/BRONCHIOLAR ADENOMA, ALV
  carcinogen call: active; positive
Species: RAT, Strain/Sex: F344/FEMALE, Route: INHALATION, Dose: 0, 0.6, 3.0 PPM 6 HR/D, 5 D/WK FOR 84-103 WK, Dose: 0, 0.6, 3.0 PPM 6 HR/D, 5 D/WK FOR 84-103 WK, Tumor Site: Type of Lesion: NASAL CAVITY: ADENOMATOUS POLYP (NOS), ADENOMA (NOS), SQUAMOUS CELL PAPILLOMA, CARCINOMA (NOS), ADENOCARCINOMA (NOS), NA
  carcinogen call: active; positive
Species: RAT, Strain/Sex: F344/MALE, Route: INHALATION, Dose: 0, 0.6, 3.0 PPM 6 HR/D, 5 D/WK FOR 84-103 WK, Dose: 0, 0.6, 3.0 PPM 6 HR/D, 5 D/WK FOR 84-103 WK, Tumor Site: Type of Lesion: NASAL CAVITY: ADENOMATOUS POLYP (NOS), ADENOMA (NOS), SQUAMOUS CELL PAPILLOMA, SQUAMOUS CELL CARCINOMA, CARCINOMA (NOS)
  carcinogen call: active; positive
Species: RAT, Strain/Sex: OSBORNE-MENDEL/FEMALE, Route: GAVAGE, Dose: 0, 15, 29 MG/KG, TWA, Dose: 0, 15, 29 MG/KG, TWA, Tumor Site: Type of Lesion: STOMACH: SQUAMOUS CELL CARCINOMA, SQUAMOUS CELL PAPILLOMA, MAMMARY GLAND: ADENOCARCINOMA
  carcinogen call: active; positive
Species: RAT, Strain/Sex: OSBORNE-MENDEL/MALE, Route: GAVAGE, Dose: 0, 15, 29 MG/KG, TWA, Dose: 0, 15, 29 MG/KG, TWA, Tumor Site: Type of Lesion: STOMACH: SQUAMOUS CELL CARCINOMA, MULTIPLE SITES: HEMANGIOSARCOMA OR HEMANGIOMA
  carcinogen call: active; positive

## O=C(NCC1CCCCN1)c1cc(OCC(F)(F)F)ccc1OCC(F)(F)F (stereo not given)
Species: MOUSE, Strain/Sex: CD-1/MALE,FEMALE, Route: ORAL, Dose: 15, 30, 60 MG/KG/DAY IN DIET FOR 18 MO, Dose: 15, 30, 60 MG/KG/DAY IN DIET FOR 18 MO
  carcinogen call: inactive; negative
Species: RAT, Strain/Sex: WISTAR/MALE,FEMALE, Route: ORAL, Dose: 15, 30, 60 MG/KG/DAY IN DIET FOR 24 MO, Dose: 15, 30, 60 MG/KG/DAY IN DIET FOR 24 MO
  carcinogen call: inactive; negative

## O=[N+]([O-])c1cc([N+](=O)[O-])c2ccc3cccc4ccc1c2c43
Species: RAT, Strain/Sex: STRAIN CD/FEMALE, Route: INTRAGASTRIC, Dose: 10 UMOL IN DMSO 3/WK FOR 4 WK (TOTAL DOSE: 16 UMOL/RAT) (STUDY DURATION: 78 WK), Tumor Site: Type of Lesion: ADRENAL GLAND: CORTICAL ADENOMA, PITUITARY GLAND: CARCINOMA
  carcinogen call: active; positive
Species: RAT, Strain/Sex: STRAIN CD/FEMALE, Route: INTRAPERITONEAL, Dose: 0, 10 UMOL IN DMSO 3/WK FOR 4 WK (TOTAL DOSE: 16 UMOL/RAT) (STUDY DURATION: 78 WK), Tumor Site: Type of Lesion: MAMMARY GLAND: ADENOCARCINOMA, FIBROADENOMA, ADENOMA
  carcinogen call: active; positive
Species: RAT, Strain/Sex: STRAIN-CD/FEMALE, Route: SUBCUTANEOUS, Dose: 0, 6.3 UMOL (TOTAL DOSE) ADMINISTERED OVER 8 WK BEGINNING ON DAY OF BIRTH (STUDY DURATION: 67 WK), Tumor Site: Type of Lesion: INTEGUMENTARY SYSTEM: MALIGNANT FIBROUS HISTIOCYTOMA
  carcinogen call: active; positive

## C[C@]12CCC(=O)C=C1CC[C@@H]1[C@@H]2CC[C@]2(C)C(=O)CC[C@@H]12
Species: Mouse, Strain/Sex: B6C3F1/Female (50/Group), Route: Oral, Dose: 0, 2, 10, 50 mg/kg in 0.5% methylcellulose solution, by gavage, 5 d/wk for 2 yr, Dose: 0, 2, 10, 50 mg/kg in 0.5% methylcellulose solution, by gavage, 5 d/wk for 2 yr, Tumor Site: Type of Lesion: Liver: hepatocellular adenoma (14/50, 16/50, 18/50, 28/50), hepatocellular carcinoma (5/50, 13/50, 15/50, 15/50), hepato, Tumor Site: Type of Lesion: Liver: hepatocellular adenoma (14/50, 16/50, 18/50, 28/50), hepatocellular carcinoma (5/50, 13/50, 15/50, 15/50), hepato
  carcinogen call: active; positive. (authors describe as clear evidence)
Species: Mouse, Strain/Sex: B6C3F1/Male (50/Group), Route: Oral, Dose: 0, 10, 20, 50 mg/kg in 0.5% methylcellulose solution, by gavage, 5 d/wk for 2 yr, Dose: 0, 10, 20, 50 mg/kg in 0.5% methylcellulose solution, by gavage, 5 d/wk for 2 yr, Tumor Site: Type of Lesion: Liver: hepatocellular adenoma, multiple (16/50, 27/50, 23/50, 34/50), hepatocellular adenoma (includes multiples) (32/50
  carcinogen call: active; positive. (authors describe as clear evidence)
Species: Rat, Strain/Sex: F344/N / Female (50/Group), Route: Oral, Dose: 0, 10, 20, 50 mg/kg in 0.5% methylcellulose solution, by gavage, 5 d/wk for 2 yr, Dose: 0, 10, 20, 50 mg/kg in 0.5% methylcellulose solution, by gavage, 5 d/wk for 2 yr
  carcinogen call: inactive; negative. (authors describe as equivocal evidence based on incidence of mononucl
Species: Rat, Strain/Sex: F344/N / Male (50/Group), Route: Oral, Dose: 0, 10, 20, 50 mg/kg in 0.5% methylcellulose solution, by gavage, 5 d/wk for 2 yr, Dose: 0, 10, 20, 50 mg/kg in 0.5% methylcellulose solution, by gavage, 5 d/wk for 2 yr
  carcinogen call: inactive; negative. (authors describe as equivocal evidence based on alveolar/bronchiolar

## Nc1ccc(N)c([N+](=O)[O-])c1
Species: MOUSE, Strain/Sex: B6C3F1/FEMALE, Route: ORAL, Dose: 0, 2200, 4400 PPM IN DIET, Dose: 0, 2200, 4400 PPM IN DIET, Tumor Site: Type of Lesion: LIVER: HEPATOCELLULAR ADENOMA OR CARCINOMA
  carcinogen call: active; positive
Species: MOUSE, Strain/Sex: B6C3F1/MALE, Route: ORAL, Dose: 0, 2200, 4400 PPM IN DIET, Dose: 0, 2200, 4400 PPM IN DIET
  carcinogen call: inactive; negative
Species: RAT, Strain/Sex: F344/FEMALE, Route: ORAL, Dose: 0, 1100, 2200 PPM IN DIET, Dose: 0, 1100, 2200 PPM IN DIET
  carcinogen call: inactive; negative
Species: RAT, Strain/Sex: F344/MALE, Route: ORAL, Dose: 0, 550, 1100 PPM IN DIET, Dose: 0, 550, 1100 PPM IN DIET
  carcinogen call: inactive; negative
